Data: PMC6550521, “Stress-Induced Changes in the Lipid Microenvironment of β-(1,3)-D-Glucan Synthase Cause Clinically Important Echinocandin Resistance in Aspergillus fumigatus” (mBio, 2019)
Values joined by “and” are separate entries in the source; they are usually repeats but may differ in a detail not shown here. Equal values may be shown once.

Tests used:
[1] = test system: cell wall glucan and chitin of RG101; experiment: Cell wall carbohydrate analysis (mass spectrometry, calcofluor white); format: cell-based, Aspergillus fumigatus; settings: CAS 4 μg/ml
Experimental: Strains ATCC 13073 and RG101 were grown in the absence and presence of CAS (4 μg/ml) in 6-well microtiter plates containing yeast extract-peptone-dextrose (YPD) broth for 22 h at 37°C. The cells were then lysed using a French press. The broken cell wall sample was processed for chemical analysis using mass spectrometry at the Complex Carbohydrate Research Center (CCRC) at the University of Georgia, Athens, GA.

A. fumigatus RG101 [2] = experiment: Electron microscopy (SEM, TEM) of cell wall ultrastructure; format: cell-based, Aspergillus fumigatus; settings: CAS 4 μg/ml, 16 h, SEM and TEM
Experimental: (§1) Scanning electron microscopy (SEM) and transmission electron microscopy (TEM) methods were followed as described previously ([49]) and in Text S1.
(§2) For SEM, mycelia of ATCC 13073 and RG101 were grown in the absence and presence of CAS (4 µg/mL) and were fixed with 2.5% (v/v) glutaraldehyde in 0.1 M cacodylate buffer (pH 7.4) at room temperature for 3 h. After being washed with 0.1 M cacodylate buffer, specimens were post-fixed for 1 h with 1% osmium tetroxide in 0.1 M cacodylate buffer (pH 7.4) at 4 °C. Samples were dehydrated in graded ethanol, and then critical point dried in liquid carbon dioxide and sputter-coated with a thin layer of palladium–gold. Observations were carried out using Hitachi S-3400 N scanning electron microscope.
(§3) For TEM, cultures were fixed with 2.5% (v/v) glutaraldehyde solution as described above. They were then post-fixed for 1 h with 1% (w/v) osmium tetroxide in 0.1 M cacodylate buffer (pH 7.4) at 4 °C. After three wash steps in buffer, specimens were dehydrated in a series of graded ethanol and embedded in Embed 812. Thin sections were stained with uranyl acetate followed by lead nitrate and examined in a Hitachi H-7500 electron microscope operated at 100 KV.

A. fumigatus ATCC 13073 [3] = experiment: as above; format: cell-based, Aspergillus fumigatus; settings: CAS 4 μg/ml, 16 h, SEM and TEM
Experimental: as §1, §2, §3

[4] = test system: lipid microenvironment of glucan synthase of clinical isolates 117, 2770 and 32458; experiment: Lipid analysis (LC-MS/MS) of partially purified glucan synthase; format: cell-based, Aspergillus fumigatus; settings: isolates 117, 2770, 32458 treated with CAS
Experimental: (§4) Approximately 10 μg/ml of partially purified glucan synthase of RG101 and clinical isolates was analyzed for lipid content by LC-MS/MS ([50]) at the Lipidomics Shared Resource of the Medical University of South Carolina (http://www.hollingscancercenter.org/research/shared-resources/lipidomics/index.html).

[5] = test system: lipid microenvironment of glucan synthase of RG101; experiment: as above; format: cell-based, Aspergillus fumigatus; settings: RG101 grown with CAS 1 μg/ml
Experimental: as §4

[6] = molecular target: β-(1,3)-D-glucan synthase of clinical isolate 117 (Aspergillus fumigatus, UniProt Q4WLT4); experiment: Glucan synthase kinetic inhibition assay, enzyme from clinical isolate 117; format: biochemical; settings: enzyme from isolate 117 grown at 4 μg/ml CAS
Sequence of β-(1,3)-D-glucan synthase of clinical isolate 117 (Q4WLT4 1-1904): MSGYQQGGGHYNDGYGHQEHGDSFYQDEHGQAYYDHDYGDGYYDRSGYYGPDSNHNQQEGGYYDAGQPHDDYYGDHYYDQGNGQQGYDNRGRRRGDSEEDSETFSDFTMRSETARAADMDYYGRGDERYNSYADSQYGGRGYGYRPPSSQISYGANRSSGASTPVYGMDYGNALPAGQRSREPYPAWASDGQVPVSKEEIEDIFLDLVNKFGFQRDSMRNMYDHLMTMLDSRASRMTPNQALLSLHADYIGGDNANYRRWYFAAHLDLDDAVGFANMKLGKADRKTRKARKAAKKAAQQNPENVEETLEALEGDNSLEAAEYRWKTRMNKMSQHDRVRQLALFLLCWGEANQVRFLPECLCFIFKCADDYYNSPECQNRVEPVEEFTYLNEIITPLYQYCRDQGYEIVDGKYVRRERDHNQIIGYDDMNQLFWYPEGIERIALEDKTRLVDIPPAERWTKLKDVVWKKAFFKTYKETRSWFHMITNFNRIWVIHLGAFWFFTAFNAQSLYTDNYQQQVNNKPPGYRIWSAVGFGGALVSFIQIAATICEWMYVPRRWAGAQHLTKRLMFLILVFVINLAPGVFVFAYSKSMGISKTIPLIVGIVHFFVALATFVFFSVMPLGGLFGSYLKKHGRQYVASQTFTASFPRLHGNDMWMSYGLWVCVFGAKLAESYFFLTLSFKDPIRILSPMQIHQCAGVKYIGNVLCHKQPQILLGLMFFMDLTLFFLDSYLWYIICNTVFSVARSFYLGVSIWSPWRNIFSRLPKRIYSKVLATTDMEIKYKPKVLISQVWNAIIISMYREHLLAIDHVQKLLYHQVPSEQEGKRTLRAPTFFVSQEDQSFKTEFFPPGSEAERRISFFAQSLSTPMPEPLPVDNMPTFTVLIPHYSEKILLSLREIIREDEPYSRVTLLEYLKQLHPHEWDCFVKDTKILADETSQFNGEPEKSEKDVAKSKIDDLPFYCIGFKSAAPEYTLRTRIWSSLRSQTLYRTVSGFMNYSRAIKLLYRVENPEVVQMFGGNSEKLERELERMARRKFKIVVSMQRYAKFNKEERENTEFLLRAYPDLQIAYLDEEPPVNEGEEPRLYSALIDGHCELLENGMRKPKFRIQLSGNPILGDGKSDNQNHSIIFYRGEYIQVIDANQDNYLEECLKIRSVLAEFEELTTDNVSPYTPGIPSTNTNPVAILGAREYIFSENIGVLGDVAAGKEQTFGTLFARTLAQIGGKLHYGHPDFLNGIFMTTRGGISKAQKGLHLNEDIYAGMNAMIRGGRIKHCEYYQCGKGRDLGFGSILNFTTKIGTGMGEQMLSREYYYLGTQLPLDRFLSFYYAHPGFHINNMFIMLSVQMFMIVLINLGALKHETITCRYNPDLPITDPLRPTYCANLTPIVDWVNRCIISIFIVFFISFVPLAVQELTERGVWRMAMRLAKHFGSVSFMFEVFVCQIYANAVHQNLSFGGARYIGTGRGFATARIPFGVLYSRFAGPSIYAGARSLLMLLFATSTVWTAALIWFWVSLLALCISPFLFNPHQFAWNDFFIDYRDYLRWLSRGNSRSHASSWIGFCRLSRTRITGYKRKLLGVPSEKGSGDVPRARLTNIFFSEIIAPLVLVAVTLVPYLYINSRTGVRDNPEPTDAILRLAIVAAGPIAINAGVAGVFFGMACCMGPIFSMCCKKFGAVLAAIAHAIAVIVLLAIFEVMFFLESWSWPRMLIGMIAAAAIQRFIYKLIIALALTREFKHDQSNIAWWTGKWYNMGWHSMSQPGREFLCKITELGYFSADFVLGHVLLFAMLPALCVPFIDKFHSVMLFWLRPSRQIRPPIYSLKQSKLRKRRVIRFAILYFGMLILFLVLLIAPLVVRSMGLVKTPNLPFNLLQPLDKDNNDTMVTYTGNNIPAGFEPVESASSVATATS

A. fumigatus RG101 [7] = format: cell-based, Aspergillus fumigatus
Experimental: The following drugs (supplier) were tested: caspofungin (Merck & Co., Inc.), micafungin (Astellas Pharma US, Inc.), anidulafungin (Pfizer Inc.), itraconazole (Sigma-Aldrich), voriconazole (Pfizer Inc.), and amphotericin B (Sigma-Aldrich). In addition, rezafungin and ibrexafungerp were obtained from Cidara Therapeutics and Scynexis Inc., respectively.

[8] = test system: A. fumigatus S679P (fks1 Ser-679-Pro mutant); experiment: Antifungal susceptibility testing (MEC, CLSI M38-A2); format: cell-based, Aspergillus fumigatus; settings: S679P, fks1 Ser-679-Pro
Experimental: (§5) Minimum effective concentrations (MECs) for A. fumigatus strains were determined according to CLSI document M38-A2 ([48]) and defined as the lowest drug concentration that led to the growth of small, rounded, compact hyphal forms compared to the hyphal growth seen in the drug-free growth control wells. The following drugs (supplier) were tested: caspofungin (Merck & Co., Inc.), micafungin (Astellas Pharma US, Inc.), anidulafungin (Pfizer Inc.), itraconazole (Sigma-Aldrich), voriconazole (Pfizer Inc.), and amphotericin B (Sigma-Aldrich). In addition, rezafungin and ibrexafungerp were obtained from Cidara Therapeutics and Scynexis Inc., respectively.

A. fumigatus ATCC 13073 [9] = experiment: as above; format: cell-based, Aspergillus fumigatus
Experimental: as §5

[10] = molecular target: β-(1,3)-D-glucan synthase of clinical isolate 2770 (Aspergillus fumigatus, UniProt Q4WLT4); experiment: Glucan synthase kinetic inhibition assay, enzyme from clinical isolate 2770; format: biochemical; settings: enzyme from isolate 2770 grown at 4 μg/ml CAS
Sequence of β-(1,3)-D-glucan synthase of clinical isolate 2770 (Q4WLT4 1-1904): as above

## CC[C@H](C)C[C@H](C)CCCCCCCCC(=O)N[C@H]1C[C@@H](O)[C@@H](NCCN)NC(=O)[C@@H]2[C@@H](O)CCN2C(=O)[C@H]([C@H](O)CCN)NC(=O)[C@H]([C@H](O)[C@@H](O)c2ccc(O)cc2)NC(=O)[C@@H]2C[C@@H](O)CN2C(=O)[C@H]([C@@H](C)O)NC1=O [CAS, caspofungin]
[1]; MS and calcofluor white
  Chitin levels in RG101 upon CAS exposure: no significant increase
[1]; mass spectroscopy
  Cell wall glucan content in RG101 treated with CAS: no reduction
A. fumigatus RG101 [2]
  Cell wall ultrastructure of RG101 grown in the presence of CAS: did not show any ultrastructural cell wall damage
A. fumigatus ATCC 13073 [3]
  Cell wall ultrastructure of ATCC 13073 grown in the presence of CAS: extensive damage
[4]
  Abundance of DhSph and PhSph in enzyme preparations of CAS-treated clinical isolates: significantly increased abundance
[5]
  Increase in abundance of dihydrosphingosine (DhSph), CAS-treated vs untreated: 2 fold and 3 fold
  Increase in abundance of phytoceramide (C24), CAS-induced vs uninduced: 3 fold
  Increase in abundance of phytosphingosine (PhSph), CAS-treated vs untreated: 10 fold
[6]
  IC50: > 9.15 µM
A. fumigatus RG101 [7]; 24 h
  Breakthrough growth concentrations, RG101: 0.5 to 8 µg/mL
  MEC 2 (rosettes form again), RG101: 16 µg/mL
  Susceptibility phenotype of RG101: resistant
A. fumigatus RG101 [7]; 30 h, all concentrations tested (0.25 to 8 μg/ml)
  Growth phenotype of RG101 at 30 h: full breakthrough
[8]
  MEC (minimum effective concentration): 16 µg/mL
A. fumigatus ATCC 13073 [9]; 24 h, Fig 1B
  Drug susceptibility testing result, ATCC 13073: 0.12 µg/mL
A. fumigatus ATCC 13073 [9]; ATCC 13073, fks1 WT
  MEC (minimum effective concentration): 0.12 µg/mL
[10]
  IC50: > 9.15 µM
